Measurements as given in paper PMC8329502 (Toxicology Reports, 2021).

Biological target: T1, cytochrome P450 1A2 (CYP1A2) (Homo sapiens, UniProt P05177)
T1 sequence (P05177 2-516): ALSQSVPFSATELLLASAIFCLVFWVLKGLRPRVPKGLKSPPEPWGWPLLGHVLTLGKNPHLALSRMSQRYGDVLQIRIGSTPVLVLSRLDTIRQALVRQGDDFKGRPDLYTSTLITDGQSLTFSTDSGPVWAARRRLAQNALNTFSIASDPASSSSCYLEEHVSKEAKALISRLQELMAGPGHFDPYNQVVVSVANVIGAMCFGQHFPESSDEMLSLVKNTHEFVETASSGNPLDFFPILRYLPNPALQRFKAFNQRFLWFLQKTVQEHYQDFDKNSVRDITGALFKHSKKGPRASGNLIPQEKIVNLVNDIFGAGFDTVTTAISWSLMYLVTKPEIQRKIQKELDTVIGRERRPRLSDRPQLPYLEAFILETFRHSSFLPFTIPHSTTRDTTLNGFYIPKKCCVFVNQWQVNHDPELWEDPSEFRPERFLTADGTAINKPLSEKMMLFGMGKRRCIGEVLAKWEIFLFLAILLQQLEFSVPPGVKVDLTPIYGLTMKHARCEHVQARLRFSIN
Assay: […]-caffeine 3-N-demethylation in 50-donor pooled human liver microsomes
Type: biochemical

Row | SMILES | IC50 [nM]
1 | COc1c2ccoc2c(OC)c2oc(=O)ccc12 [ISOP, isopimpinellin] | 277
2 | COc1c2ccoc2cc2oc(=O)ccc12 [5-MOP, 5-methoxypsoralen] | 68.8
